# According to patent US20170021042A1, “Flow-Through Pathogen Reduction” (Terumo BCT Biotechnologies, LLC, priority 2015, published 2017):
# Marks after values point to notes of the source that are not given here.
# Legend:
# PhiX174 [1] = test: PhiX174 reduction in plasma with riboflavin, UV-illuminated flow-through flow cells; conditions: for pathogen reduction (log reduction of PhiX174): plasma + riboflavin, irradiance 4.5 mW/cm2
# From the text: The goal of this study is to obtain insight into the correlation between flow rate, channel thickness and pathogen reduction. The flow cells in this study have a relatively thicker channel and different flow configurations.
# (§1) The flow cell mounts in a fixture (e.g., flow cell holder) which maintains channel thickness by applying pressure from both the top and bottom. The fixture houses eight illumination lamps driven at 800 mA with four on top and four on bottom producing an irradiance of 4.5 mW/cm2. Product can be flowed through the flow-cell, which is mounted adjacent to the light source, and then samples are taken on the back end.
# The increased channel thickness results in decreased fluidic impedance requiring the use of a peristaltic pump to control flow rate instead of by gravity. The pump is calibrated prior to use to ensure flow rate accuracy.
# 1.5.5. Submit one sample tube for each sample for viral titer and save the other two samples for later analysis.
# Below are the pathogen reduction results. In Table 6, cells with bold text indicate a sample that is within the limit of detection and cells with an asterisk indicate a sample that has six or less PhiX174 colonies at a one log dilution and is outside the limit of detection. Cells with underlined text indicate a sample is technically outside the limit of detection but has PhiX174 colonies allowing for the inferred calculation of pathogen reduction. Each cell also has dwell time in seconds and predicted dose. The lower predicted dose value takes into account the transmissivity of the plasma and flow cell. The higher predicted dose assumes that all light incident on the flow cell is absorbed by the plasma.
# PhiX174 [2] = test: PhiX174 reduction in whole blood with riboflavin, UV-illuminated flow-through flow cells
# From the text: This study is designed to obtain insight into the correlation between flow rate, channel thickness and pathogen reduction of whole blood. The flow cells in this study have thin channels and different flow configurations. Thin channels are used because whole blood is less transmissive than plasma.
# as §1, with “(e.g. a” for “(e.g.,”, “mW/cm^2.” for “mW/cm2.”, “can be” for “are”
# A peristaltic pump to control flow rate is used with the pump will located after the flow cell so that negative pressure is applied to the flow cell by the pump instead of positive pressure. The pump is calibrated prior to use to ensure flow rate accuracy.
# Two flow cell configurations being tested may be referred to as “8p” and “4s×2p”. The 8p configuration has all the channels in parallel; therefore the fluid crosses one channel before exiting the flow cell. The 4s×2p configuration requires the fluid to cross four channels in series before exiting the flow cell. […]
compound,measurement,setting,value
Cc1cc2nc3c(=O)[nH]c(=O)nc-3n(C[C@H](O)[C@H](O)[C@H](O)CO)c2cc1C [riboflavin],"hemolysis, difference from hold control",whole blood,≤ 0.06 % hemolysis
same,pathogen reduction (log reduction of PhiX174),"PhiX174 [1]; flow cell A, gap 3/1000"" (0.0762 mm), flow rate 20 ml/min, dwell 2.9 sec",(~3.4 logs)*
same,pathogen reduction (log reduction of PhiX174),"PhiX174 [1]; flow cell A, gap 3/1000"" (0.0762 mm), flow rate 40 ml/min, dwell 1.5 sec",(2.8 logs)*
same,pathogen reduction (log reduction of PhiX174),"PhiX174 [1]; flow cell B, gap 5/1000"" (0.127 mm), flow rate 20 ml/min, dwell 4.9 sec",(~3.6 logs)*
same,pathogen reduction (log reduction of PhiX174),"PhiX174 [1]; flow cell B, gap 5/1000"" (0.127 mm), flow rate 40 ml/min, dwell 2.43 sec",(2.6 logs)*
same,pathogen reduction (log reduction of PhiX174),"PhiX174 [1]; flow cell C, gap 12/1000"" (0.305 mm), flow rate 40 ml/min, dwell 5.8 sec",(~3.9 logs)*
same,pathogen reduction (log reduction of PhiX174),"PhiX174 [1]; flow cell C, gap 12/1000"" (0.305 mm), flow rate 80 ml/min, dwell 2.9 sec",(2.5 logs)*
same,pathogen reduction (log reduction of PhiX174),"PhiX174 [1]; flow cell D, gap 20/1000"" (0.508 mm), flow rate 80 ml/min, dwell 4.7 sec",(2.9 logs)*
same,"pathogen reduction, in words","PhiX174 [1]; plasma and riboflavin, all flow cells A-D",adequate pathogen reduction
same,"pathogen reduction, in words",PhiX174 [2],within the acceptable pathogen reduction range
